According to PubChem BioAssay AID1963839 (Molecular Pharmacology Branch, DTP, NCI, 2024):

Tested on: 817829-284-R-J1-PDC complex spheroid viability
Assay: Anticancer human tumor 817829-284-R-J1-PDC patient-derived colon adenocarcinoma cell line growth inhibition [POLQ]
Details: for IC50: curve of first compound; for viability, T/C: stronger effect = lower value
In short: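 Three-cell-type spheroids modelling solid tumor plus stroma served as the readout system; POL inhibitors were tested individually and in combination, concentration ranges set by clinical Cmax where known.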

[1] = second compound 0.0316 µM, first compound 0.0316 µM
[2] = second compound 0.0316 µM, first compound 0.1 µM
[3] = second compound 0.0316 µM, first compound 0.316 µM
[4] = second compound 0.0316 µM, first compound 1 µM
[5] = second compound 0.0316 µM, first compound 3.16 µM
[6] = second compound 0.0316 µM, first compound 10 µM
[7] = second compound 0.1 µM, first compound 0.0316 µM
[8] = second compound 0.1 µM, first compound 0.1 µM
[9] = second compound 0.1 µM, first compound 0.316 µM
[10] = second compound 0.1 µM, first compound 1 µM
[11] = second compound 0.1 µM, first compound 3.16 µM
[12] = second compound 0.1 µM, first compound 10 µM
[13] = second compound 0.316 µM, first compound 0.0316 µM
[14] = second compound 0.316 µM, first compound 0.1 µM
[15] = second compound 0.316 µM, first compound 0.316 µM
[16] = second compound 0.316 µM, first compound 1 µM
[17] = second compound 0.316 µM, first compound 3.16 µM
[18] = second compound 0.316 µM, first compound 10 µM
[19] = second compound 1 µM, first compound 0.0316 µM
[20] = second compound 1 µM, first compound 0.1 µM
[21] = second compound 1 µM, first compound 0.316 µM
[22] = second compound 1 µM, first compound 1 µM
[23] = second compound 1 µM, first compound 3.16 µM
[24] = second compound 1 µM, first compound 10 µM
[25] = second compound 3.16 µM, first compound 0.0316 µM
[26] = second compound 3.16 µM, first compound 0.1 µM
[27] = second compound 3.16 µM, first compound 0.316 µM
[28] = second compound 3.16 µM, first compound 1 µM
[29] = second compound 3.16 µM, first compound 3.16 µM
[30] = second compound 3.16 µM, first compound 10 µM
[31] = second compound 10 µM, first compound 0.0316 µM
[32] = second compound 10 µM, first compound 0.1 µM
[33] = second compound 10 µM, first compound 0.316 µM
[34] = second compound 10 µM, first compound 1 µM
[35] = second compound 10 µM, first compound 3.16 µM
[36] = second compound 10 µM, first compound 10 µM
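Also: spheroids exposed to compounds for 7 days.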
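For viability, T/C in this document: 100% = DMSO vehicle-treated spheroids.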

## CCc1cc2c(N3CCc4c(cc(Cn5ccnc5)cc4-c4cn(C)nc4C(F)(F)F)C3=O)cc(C)nc2c(OC)n1 + Nc1ccc(C#CCN(C(=O)Cc2ncc(C(F)(F)F)cc2C(F)(F)F)c2ccc(F)cc2)nn1
Second compound 0.0316 µM
  IC50: 1750 nM
Second compound 0.1 µM
  IC50: 2070 nM
Second compound 0.316 µM
  IC50: 1650 nM
Second compound 1 µM
  IC50: 2190 nM
Second compound 3.16 µM
  IC50: 973 nM
Second compound 10 µM
  IC50: 963 nM
[1]
  viability, T/C: 85.5%
[2]
  viability, T/C: 73.8%
[3]
  viability, T/C: 67.8%
[4]
  viability, T/C: 56.1%
[5]
  viability, T/C: 43.7%
[6]
  viability, T/C: 31.4%
[7]
  viability, T/C: 101%
[8]
  viability, T/C: 80.5%
[9]
  viability, T/C: 71.9%
[10]
  viability, T/C: 62.2%
[11]
  viability, T/C: 46.7%
[12]
  viability, T/C: 26.7%
[13]
  viability, T/C: 92.9%
[14]
  viability, T/C: 80.3%
[15]
  viability, T/C: 71.7%
[16]
  viability, T/C: 57.1%
[17]
  viability, T/C: 40.4%
[18]
  viability, T/C: 30%
[19]
  viability, T/C: 87%
[20]
  viability, T/C: 66.3%
[21]
  viability, T/C: 72.4%
[22]
  viability, T/C: 82.6%
[23]
  viability, T/C: 37.3%
[24]
  viability, T/C: 23%
[25]
  viability, T/C: 98%
[26]
  viability, T/C: 76.7%
[27]
  viability, T/C: 65.5%
[28]
  viability, T/C: 49%
[29]
  viability, T/C: 37.8%
[30]
  viability, T/C: 29.1%
[31]
  viability, T/C: 101%
[32]
  viability, T/C: 71.3%
[33]
  viability, T/C: 68.5%
[34]
  viability, T/C: 50.2%
[35]
  viability, T/C: 38.3%
[36]
  viability, T/C: 30.4%

## CNCc1ccc(-c2[nH]c3cc(F)cc4c3c2CCNC4=O)cc1 + COC1C(OC(N)=O)C(O)C(Oc2ccc3c(O)c(NC(=O)c4ccc(O)c(CC=C(C)C)c4)c(=O)oc3c2C)OC1(C)C
Second compound 0.0316 µM
  IC50: 6630 nM
Second compound 0.1 µM
  IC50: > 10000 nM
Second compound 0.316 µM
  IC50: > 10000 nM
Second compound 1 µM
  IC50: 5240 nM
Second compound 3.16 µM
  IC50: 5170 nM
Second compound 10 µM
  IC50: 5380 nM
[1]
  viability, T/C: 95.8%
[2]
  viability, T/C: 94%
[3]
  viability, T/C: 83%
[4]
  viability, T/C: 76.8%
[5]
  viability, T/C: 68.8%
[6]
  viability, T/C: 40.2%
[7]
  viability, T/C: 73.3%
[8]
  viability, T/C: 102%
[9]
  viability, T/C: 86%
[10]
  viability, T/C: 55.2%
[11]
  viability, T/C: 72.8%
[12]
  viability, T/C: 53.3%
[13]
  viability, T/C: 99.1%
[14]
  viability, T/C: 108%
[15]
  viability, T/C: 83.7%
[16]
  viability, T/C: 80.4%
[17]
  viability, T/C: 74.3%
[18]
  viability, T/C: 51.5%
[19]
  viability, T/C: 125%
[20]
  viability, T/C: 91.6%
[21]
  viability, T/C: 107%
[22]
  viability, T/C: 81.8%
[23]
  viability, T/C: 80.3%
[24]
  viability, T/C: 22%
[25]
  viability, T/C: 119%
[26]
  viability, T/C: 109%
[27]
  viability, T/C: 98.9%
[28]
  viability, T/C: 103%
[29]
  viability, T/C: 58.5%
[30]
  viability, T/C: 38.2%
[31]
  viability, T/C: 98%
[32]
  viability, T/C: 99%
[33]
  viability, T/C: 75.1%
[34]
  viability, T/C: 90.1%
[35]
  viability, T/C: 73.9%
[36]
  viability, T/C: 23.1%

## CC1COCCN1c1cc(-c2ccnn2C)c2ccnc(-c3ccn[nH]3)c2n1 (stereo unspecified) + COC1C(OC(N)=O)C(O)C(Oc2ccc3c(O)c(NC(=O)c4ccc(O)c(CC=C(C)C)c4)c(=O)oc3c2C)OC1(C)C
Second compound 0.0316 µM
  IC50: < 31.6 nM
Second compound 0.1 µM
  IC50: < 31.6 nM
Second compound 0.316 µM
  IC50: < 31.6 nM
Second compound 1 µM
  IC50: < 31.6 nM
Second compound 3.16 µM
  IC50: < 31.6 nM
Second compound 10 µM
  IC50: < 31.6 nM
[1]
  viability, T/C: 30.4%
[2]
  viability, T/C: 13.2%
[3]
  viability, T/C: 5.49%
[4]
  viability, T/C: 4.46%
[5]
  viability, T/C: 3.26%
[6]
  viability, T/C: 3.12%
[7]
  viability, T/C: 38.1%
[8]
  viability, T/C: 12.8%
[9]
  viability, T/C: 4.68%
[10]
  viability, T/C: 4.07%
[11]
  viability, T/C: 3.1%
[12]
  viability, T/C: 3.09%
[13]
  viability, T/C: 38.2%
[14]
  viability, T/C: 11.9%
[15]
  viability, T/C: 5.3%
[16]
  viability, T/C: 4.05%
[17]
  viability, T/C: 3.4%
[18]
  viability, T/C: 2.6%
[19]
  viability, T/C: 26.4%
[20]
  viability, T/C: 11.9%
[21]
  viability, T/C: 5.6%
[22]
  viability, T/C: 4.46%
[23]
  viability, T/C: 3.01%
[24]
  viability, T/C: 2.34%
[25]
  viability, T/C: 42.2%
[26]
  viability, T/C: 11%
[27]
  viability, T/C: 7.02%
[28]
  viability, T/C: 4.4%
[29]
  viability, T/C: 2.97%
[30]
  viability, T/C: 2.67%
[31]
  viability, T/C: 47.5%
[32]
  viability, T/C: 13.4%
[33]
  viability, T/C: 5.44%
[34]
  viability, T/C: 4.22%
[35]
  viability, T/C: 3.19%
[36]
  viability, T/C: 2.65%
